Assay results reported in EPA's ToxRefDB 2.

Experiments:
dog [1] = conditions: Subchronic oral toxicity in nonrodent, beagle, Feed, dose end: 13 week, group: systemic, systemic / clinical chemistry / alanine aminotransferase (alt/sgpt) / alanine aminotransferase (alt/sgpt) + systemic / clinical chemistry / …
rat [2] = conditions: Combined chronic toxicity/carcinogenicity; other; Oral; Feed; dose end: 22 month; group: systemic; systemic / hematology / erythrocyte (rbc) count differential / erythrocyte (rbc) + systemic / hematology / hematocrit (hct) / hematocrit (…
dog [3] = conditions: Chronic toxicity, beagle, Oral, Feed, dose end: 52 week, group: systemic
mouse = conditions: Carcinogenicity; cd1; Oral; Feed; dose end: 18 month; group: systemic; systemic / organ weight / liver / absolute + systemic / organ weight / liver / relative to body weight + systemic / pathology microscopic / …
rat [4] = conditions: Subchronic oral toxicity in rodents, sprague dawley, Feed, dose end: 90 day, group: systemic, systemic / hematology / erythrocyte (rbc) count differential / erythrocyte (rbc) + systemic / hematology / hematocrit (hct) / hematocrit (…
rabbit = conditions: Prenatal developmental toxicity study, new zealand white, Oral, Gavage/Intubation, dose end: 19 GD
rat [5] = conditions: Subchronic oral toxicity in rodents, sprague dawley, Feed, dose end: 90 day, group: systemic
[6] = systemic / in life observation / body weight / body weight + systemic / in life observation / body weight / body weight gain + systemic / …
[7] = group: developmental, systemic / in life observation / body weight / fetal weight
[8] = group: maternal, reproductive / reproductive performance / aborted / aborted + systemic / in life observation / clinical signs / body surface staining + …
[9] = systemic / clinical chemistry / aspartate aminotransferase (ast/sgot) / aspartate aminotransferase (ast/sgot)

## COC(=O)c1cccc(C)c1S(=O)(=O)NC(=O)Nc1nc(OCC(F)(F)F)nc(N(C)C)n1 [Triflusulfuron-methyl]
Dog [1]
  LEL: 147 mg/kg/day
  LOAEL: 147 mg/kg/day
  NEL: 3.9 mg/kg/day
  NOAEL: 3.9 mg/kg/day
Rat [2]
  LEL: 30.6 mg/kg/day
  LOAEL: 30.6 mg/kg/day
  NEL: 4.06 mg/kg/day
  NOAEL: 4.06 mg/kg/day
Dog [3]; [6]
  LEL: 26.9 mg/kg/day
  NEL: 1 mg/kg/day
Dog [3]; systemic / organ weight / liver / relative to body weight + systemic / pathology microscopic / liver / hypertrophy
  LOAEL: 95.5 mg/kg/day
Dog [3]; systemic / organ weight / liver / relative to body weight + systemic / pathology microscopic / liver / hypertrophy + systemic / clinical …
  NOAEL: 27.7 mg/kg/day
mouse
  LEL: 349 mg/kg/day
  LOAEL: 349 mg/kg/day
  NEL: 20.9 mg/kg/day
  NOAEL: 20.9 mg/kg/day
Rat [4]
  LEL: 127 mg/kg/day
  LOAEL: 127 mg/kg/day
  NEL: 6.2 mg/kg/day
  NOAEL: 6.2 mg/kg/day
rabbit; [7]
  LEL: 270 mg/kg/day
  LOAEL: 270 mg/kg/day
  NEL: 90 mg/kg/day
  NOAEL: 90 mg/kg/day
rabbit; [8]
  LEL: 270 mg/kg/day
  LOAEL: 270 mg/kg/day
  NEL: 90 mg/kg/day
  NOAEL: 90 mg/kg/day
Rat [5]; [9]
  LEL: 7.71 mg/kg/day
  NEL: < 7.71 mg/kg/day
Rat [5]; systemic / in life observation / body weight / body weight gain + systemic / in life observation / food consumption / food efficiency
  LOAEL: 133 mg/kg/day
Rat [5]; systemic / in life observation / body weight / body weight gain + systemic / in life observation / food consumption / food efficiency + …
  NOAEL: 6.56 mg/kg/day
